The source of these data is patent US20040006236A1, “Diaminopropionic acid derivatives” (priority 1999, published 2004).

SMILES strings stand for the structures. Like-named read-outs stand apart in the source and are kept apart here.

Experiment [1] concerns the target T1, ICAM-1 binding to immobilized Mac-1 (Homo sapiens, UniProt P05107+P11215).
T1 construct: made in house; host or cells: transfected 293 cells (Mac-1)
As to the kind of experiment: Mac-1/ICAM-1 screening assay (solid-phase ELISA). The conditions noted are these: read-out: Mac-1/ICAM-1 Protein-Protein Assay IC50. The procedure, abridged: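 Competitive solid-phase ELISA: membrane Mac-1 from transfected 293 cells coated at 3 μg/mL in 20 mM Hepes pH 7.2/0.14 M NaCl/1 mM MnCl2; compounds (0.12 nM-20 μM, 1:4 series) plus 5dICAM-Ig (40 μg/mL, added) 2 h at 37° C. Bound ICAM-Ig detected with HRP anti-human IgG Fc, TMB, A450; IC50 reported.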

Experiment [2] concerns T lymphocyte proliferation (C57BI/6 spleen cells with irradiated BALB/c spleen cells). As to the kind of experiment: Mixed lymphocyte reaction (MLR), one-way. It counts as cell-based, mice. The conditions noted are these: read-out: MLR IC50. In a few lines:
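Irradiated BALB/c spleen cells mixed with C57BI/6 spleen cells in RPMI1640/10% heat-inactivated FBS/2-mercaptoethanol, with serial antagonist dilutions; 3 days at 5% CO2. Tritiated thymidine (0.5 μCi/well) added on day 3; incorporation counted by liquid scintillation after a further 6 h.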

The subject of experiment [3] is cell-surface Mac-1 adhesion to immobilized fibrinogen (HL-60 cells). As to the kind of experiment: Mac-1/Fibrinogen cell-based screening assay. To be noted: Homo sapiens, HL-60, HL-60 cells; read-out: Mac-1/Fgn Cell based Assay IC50. On the set-up: species or system human. In a few lines:
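Wells coated with fibrinogen and blocked with PVP. Labeled HL-60 cells (2×10^6 cells/mL in RPMI/0.05% BSA/0.2 mM MnCl2) preincubated with DMSO-diluted compounds for 10 min at 37° C, then left to adhere 30 min at 37° C/5% CO2. Unbound cells washed off with TBS.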

T1 sequence (P05107 23-769, other chains not shown): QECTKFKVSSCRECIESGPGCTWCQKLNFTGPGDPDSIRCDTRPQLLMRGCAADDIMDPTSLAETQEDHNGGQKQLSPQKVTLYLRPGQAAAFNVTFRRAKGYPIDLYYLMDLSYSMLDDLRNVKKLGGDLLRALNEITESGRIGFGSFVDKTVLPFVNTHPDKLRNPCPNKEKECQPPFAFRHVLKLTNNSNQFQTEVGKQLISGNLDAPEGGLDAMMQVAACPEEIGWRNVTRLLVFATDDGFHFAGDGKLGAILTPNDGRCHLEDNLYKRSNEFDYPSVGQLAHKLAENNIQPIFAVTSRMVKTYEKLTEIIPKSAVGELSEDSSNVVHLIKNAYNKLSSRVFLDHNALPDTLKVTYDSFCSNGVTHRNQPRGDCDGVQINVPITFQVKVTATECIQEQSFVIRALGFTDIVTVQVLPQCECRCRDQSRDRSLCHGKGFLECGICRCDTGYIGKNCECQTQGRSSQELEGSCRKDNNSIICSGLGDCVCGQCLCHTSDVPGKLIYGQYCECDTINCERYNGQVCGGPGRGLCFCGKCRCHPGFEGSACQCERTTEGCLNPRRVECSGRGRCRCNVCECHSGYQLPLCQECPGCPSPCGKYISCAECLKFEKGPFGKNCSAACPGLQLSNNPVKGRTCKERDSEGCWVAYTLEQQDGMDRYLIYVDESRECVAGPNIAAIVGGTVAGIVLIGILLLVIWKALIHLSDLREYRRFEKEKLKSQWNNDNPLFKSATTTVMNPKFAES

For `NS(=O)(=O)c1ccc(C(=O)NC[C@H](NC(=O)c2ccc(C(=O)NCc3cccc(O)c3)cc2Cl)C(=O)O)cc1` [Example 119], the IC50 worked out at 0.026 µM in experiment [1]; 0.42 µM in experiment [2] (Mus musculus, T-lymphocyte); 0.468 µM in experiment [3].
The like results for `O=C(NCc1cccc(O)c1)c1ccc(C(=O)N[C@@H](CNC(=O)c2cccc(Br)c2)C(=O)O)c(Cl)c1` [Example 121] were, in that order, 0.009 µM, 0.53 µM and 0.08 µM.
The like results for `N#Cc1cccc(C(=O)NC[C@H](NC(=O)c2ccc(C(=O)NCc3cccc(O)c3)cc2Cl)C(=O)O)c1` [Example 126] were, in that order, 0.011 µM, 0.4 µM and 0.027 µM.
The like results for `O=C(NCc1cccc(O)c1)c1ccc(C(=O)N[C@@H](CNC(=O)c2ccco2)C(=O)O)c(Cl)c1` [Example 148] were, in that order, 0.018 µM, 0.335 µM and 0.076 µM.
On to `COc1ccccc1C(=O)NC[C@H](NC(=O)c1ccc(C(=O)NCc2cccc(O)c2)cc1Cl)C(=O)O` [Example 134], for which the IC50 in experiment [1] came out at 0.026 µM; in experiment [2] (Mus musculus, T-lymphocyte), 1.55 µM; in experiment [3] it was 0.218 µM.
The like results for `O=C(NCc1cccc(O)c1)c1ccc(C(=O)N[C@@H](CNC(=O)c2ccc[nH]2)C(=O)O)c(Cl)c1` [Example 151] were, in that order, 0.033 µM, 0.265 µM and 0.046 µM.
Take `Nc1cccc(C(=O)NC[C@H](NC(=O)c2ccc(C(=O)NCc3cccc(O)c3)cc2Cl)C(=O)O)c1` [Example 118]: the IC50 in experiment [1] is 0.023 µM; in experiment [2] it was 0.145 µM; in experiment [3] it was 0.016 µM.
As for `CC(=O)Oc1ccccc1C(=O)NC[C@H](NC(=O)c1ccc(C(=O)NCc2cccc(O)c2)cc1Cl)C(=O)O` [Example 117], the IC50 in experiment [1] is 0.033 µM; in experiment [2] (Mus musculus, T-lymphocyte) it was 0.29 µM; in experiment [3] it was 0.131 µM.
For `O=C(NCc1cccc(O)c1)c1ccc(C(=O)N[C@@H](CNC(=O)c2cccc(C(F)(F)F)c2)C(=O)O)c(Cl)c1` [Example 146], in that order: 0.027 µM, 0.49 µM and 0.153 µM.
